Assay results as given in publication PMC2263054, “Functional evolution of the vitamin D and pregnane X receptors” (BMC Evolutionary Biology, 2007).
Entries after “also recorded” stand apart in the source; their conditions may differ. Where a name gives a salt, the structure may show the parent alone. Read-outs that look alike come from different tables or passages of the source.

Tests used:
Format in all cases: cell-based
[1] = target: T1, Xenopus laevis VDR (Xenopus laevis, UniProt O13124); assay: luciferase reporter transactivation assay in HepG2-NTCP cells, GAL4/xlVDR LBD chimera with tk-UAS-Luc; settings: for Effect on Xenopus laevis VDR: screening for activators, at least three concentrations of each drug
T1 sequence (O13124 90-422): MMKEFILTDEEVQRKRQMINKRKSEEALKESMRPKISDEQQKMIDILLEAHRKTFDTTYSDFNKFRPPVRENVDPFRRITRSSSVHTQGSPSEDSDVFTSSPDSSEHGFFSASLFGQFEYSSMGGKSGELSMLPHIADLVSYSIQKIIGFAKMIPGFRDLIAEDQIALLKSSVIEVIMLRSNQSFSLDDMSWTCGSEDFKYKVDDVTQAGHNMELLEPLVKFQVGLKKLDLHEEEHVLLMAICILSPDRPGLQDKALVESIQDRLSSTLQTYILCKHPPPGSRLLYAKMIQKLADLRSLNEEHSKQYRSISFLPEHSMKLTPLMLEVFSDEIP

[2] = target: T2, Sea lamprey VDR (Petromyzon marinus, UniProt Q7ZZY9)
T2 sequence (Q7ZZY9 92-406): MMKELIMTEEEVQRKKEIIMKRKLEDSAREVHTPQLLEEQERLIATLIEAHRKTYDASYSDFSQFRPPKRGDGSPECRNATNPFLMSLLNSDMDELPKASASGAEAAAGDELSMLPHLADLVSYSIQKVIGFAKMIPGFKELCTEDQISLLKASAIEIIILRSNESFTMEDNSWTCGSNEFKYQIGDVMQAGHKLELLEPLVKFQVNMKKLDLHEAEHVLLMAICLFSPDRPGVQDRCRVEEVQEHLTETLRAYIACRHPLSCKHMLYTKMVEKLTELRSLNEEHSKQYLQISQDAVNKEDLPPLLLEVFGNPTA

[3] = target: T3, Zebrafish VDR (Danio rerio, UniProt Q9PTN2); assay: luciferase reporter transactivation assay in HepG2-NTCP cells, GAL4/zfVDR LBD chimera with tk-UAS-Luc; settings: for Effect on zebrafish VDR: screening for activators, at least three concentrations of each drug
T3 sequence (Q9PTN2 121-453): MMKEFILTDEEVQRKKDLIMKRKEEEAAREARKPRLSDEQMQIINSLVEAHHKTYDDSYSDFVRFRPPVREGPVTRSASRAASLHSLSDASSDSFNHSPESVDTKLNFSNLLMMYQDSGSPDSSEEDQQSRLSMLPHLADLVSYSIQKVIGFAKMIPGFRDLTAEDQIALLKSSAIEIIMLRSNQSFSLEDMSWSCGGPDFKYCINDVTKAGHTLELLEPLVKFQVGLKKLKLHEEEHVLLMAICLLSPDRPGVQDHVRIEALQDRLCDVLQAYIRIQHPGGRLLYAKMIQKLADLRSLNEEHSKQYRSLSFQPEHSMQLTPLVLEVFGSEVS

[4] = screening for activators, at least three concentrations of each drug
[5] = HepG2-NTCP cells, luciferase reporter, unit not given, also cells saying No effect

| SMILES | Effect on Xenopus laevis VDR [1] | Effect on sea lamprey VDR [2, 4] | Effect on zebrafish VDR [3] | Xenopus VDR EC50 ± SD [1, 5] | Sea lamprey VDR EC50 ± SD [2, 5] | Zebrafish VDR EC50 ± SD [3, 5] | Effect on sea lamprey VDR [2] |
| --- | --- | --- | --- | --- | --- | --- | --- |
| C#C[C@]1(O)CC[C@H]2[C@@H]3CCc4cc(O)ccc4[C@H]3CC[C@@]21C [Ethinyl estradiol] | No effect | No effect | No effect |  |  |  |  |
| C[C@]12CC[C@@H](O)C[C@H]1CC[C@@H]1[C@@H]2CC[C@]2(C)C(=O)CC[C@@H]12 [Etiocholanolone] | No effect | No effect | No effect |  |  |  |  |
| CC(C)=CCC/C(C)=C/CC/C(C)=C/CO [Farnesol] | No effect | No effect | No effect |  |  |  |  |
| CC(C)=CCC/C(C)=C/CC/C(C)=C/CSCC(=O)O [Farnesylthioacetic acid] | No effect | No effect | No effect |  |  |  |  |
| CC(C(=O)O)c1ccc(-c2ccccc2)c(F)c1 (stereo not drawn) [Flurbiprofen] | No effect | No effect | No effect |  |  |  |  |
| O=C(O)Cc1cccc(OCCCN(Cc2cccc(C(F)(F)F)c2Cl)CC(c2ccccc2)c2ccccc2)c1 [GW3965] | None of these three VDRs were activated; also recorded: No effect | None of these three VDRs were activated; also recorded: No effect | None of these three VDRs were activated; also recorded: No effect |  |  |  |  |
| CC(C)c1onc(-c2c(Cl)cccc2Cl)c1COc1ccc(/C=C/c2cccc(C(=O)O)c2)c(Cl)c1 [GW4064] | None of these three VDRs were activated | None of these three VDRs were activated | None of these three VDRs were activated |  |  |  |  |
| CC(C)(Sc1ccc(CCN(CCCCC2CCCCC2)C(=O)NC2CCCCC2)cc1)C(=O)O [GW 7647] | No effect | No effect | No effect |  |  |  |  |
| O=C(Nc1ccccc1)c1cc([N+](=O)[O-])ccc1Cl [GW 9662] | No effect | No effect | No effect |  |  |  |  |
| Cc1ccc(C)c(OCCCC(C)(C)C(=O)O)c1 [Gemfibrozil] | No effect | No effect | No effect |  |  |  |  |
| CC(C)=CCC/C(C)=C/CC/C(C)=C/CC/C(C)=C/CO [Geranygeraniol] | No effect | No effect | No effect |  |  |  |  |
| CC(CCC(=O)NCC(=O)O)C1CCC2C3C(O)CC4CC(O)CCC4(C)C3CCC12C (stereo not drawn) [Glycochenodeoxycholic acid] | No effect | No effect | No effect |  |  |  |  |
| C[C@H](CCC(=O)NCC(=O)O)[C@H]1CC[C@H]2[C@@H]3[C@H](O)C[C@@H]4C[C@H](O)CC[C@]4(C)[C@H]3C[C@H](O)[C@]12C.O [Glycocholic acid hydrate] | No effect | No effect | No effect |  |  |  |  |
| C[C@H](CCC(=O)NCC(=O)O)[C@H]1CC[C@H]2[C@@H]3CC[C@@H]4C[C@H](O)CC[C@]4(C)[C@H]3C[C@H](O)[C@]12C.O [Glycodeoxycholic acid monohydrate] | No effect | No effect | No effect |  |  |  |  |
| CC(CCC(=O)NCC(=O)O)C1CCC2C3CCC4CC(O)CCC4(C)C3CC(O)C12C (stereo not drawn) [Glycodeoxycholic acid] | No effect | No effect | No effect |  |  |  |  |
| C[C@H](CCC(=O)NCC(=O)O)[C@H]1CC[C@H]2[C@@H]3CC[C@@H]4C[C@H](OS(=O)(=O)O)CC[C@]4(C)[C@H]3CC[C@]12C [Glycolithocholic acid 3-sulfate] | No effect | No effect | No effect |  |  |  |  |
| CC(=O)N1CCN(c2ccc(OCC3COC(Cn4ccnc4)(c4ccc(Cl)cc4Cl)O3)cc2)CC1 (stereo not drawn) [Ketoconazole] | No effect | No effect | No effect |  |  |  |  |

| SMILES | Effect on Xenopus laevis VDR [1] | Effect on sea lamprey VDR [2, 4] | Effect on zebrafish VDR [3] | Xenopus VDR EC50 ± SD [1, 5] | Sea lamprey VDR EC50 ± SD [2, 5] | Zebrafish VDR EC50 ± SD [3, 5] | Effect on sea lamprey VDR [2] |
| --- | --- | --- | --- | --- | --- | --- | --- |
| CCCc1c(OCCCCc2nnn[nH]2)ccc(C(C)=O)c1O [LY 171883] | No effect | No effect | No effect |  |  |  |  |
| C=CC[C@@H]1[C@H](O)CC[C@@]2(C)[C@H]1CC[C@@H]1[C@@H]2CC[C@]2(C)[C@@H]([C@H](C)CCCC(C)C)CC[C@@H]12 [LY 295427] | No effect | No effect | No effect |  |  |  |  |
| CC(C)=CCC[C@@H](C)[C@H]1CC[C@@]2(C)C3=C(CC[C@]12C)[C@@]1(C)CC[C@H](O)C(C)(C)[C@@H]1CC3 [Lanosterol] | No effect | No effect | No effect |  |  |  |  |
| CC(C)CCC[C@@H](C)[C@H]1CC[C@H]2C3=CC[C@H]4C[C@@H](O)CC[C@]4(C)[C@H]3CC[C@]12C [Lathosterol] | No effect | No effect | No effect |  |  |  |  |
| C#C[C@]1(O)CC[C@H]2[C@@H]3CCC4=CC(=O)CC[C@@H]4[C@H]3CC[C@@]21CC [Levonorgestrol] | No effect | No effect | No effect |  |  |  |  |
| C[C@H](CCC(=O)O)[C@H]1CC[C@H]2[C@@H]3CC[C@@H]4C[C@H](O)CC[C@]4(C)[C@H]3CC[C@]12C [Lithocholic acid] |  |  |  | No effect | No effect | No effect |  |
| COc1c(C)c2c(c(O)c1C/C=C(\C)CCC(=O)O)C(=O)OC2 [Mycophenolic acid] | No effect | No effect | No effect |  |  |  |  |
| CCCCCCCC/C=C\CCCCCCCC(=O)NCCO [N-Oleoylethanolamide] | No effect | No effect | No effect |  |  |  |  |
| C#C[C@]1(O)CC[C@H]2[C@@H]3CCC4=CC(=O)CC[C@@H]4[C@H]3CC[C@@]21C [Norethindrone] | No effect |  | No effect |  |  |  | No effect |
| CC(=O)O[C@H]1C(=O)[C@@]2(C)[C@H]([C@H](OC(=O)c3ccccc3)[C@]3(O)C[C@H](OC(=O)[C@H](O)[C@@H](NC(=O)c4ccccc4)c4ccccc4)C(C)=C1C3(C)C)[C@]1(OC(C)=O)CO[C@@H]1C[C@@H]2O [Paclitaxel] | No effect | No effect | No effect |  |  |  |  |
| CC(C)(O)[C@H]1O[C@H]2CC[C@@]3(C)[C@@](O)(CC[C@H]4Cc5c([nH]c6ccccc56)[C@@]43C)C2=CC1=O [Paxilline] | No effect | No effect | No effect |  |  |  |  |
| CCc1ccc(CCOc2ccc(CC3SC(=O)NC3=O)cc2)nc1 (stereo not drawn) [Pioglitazone HCl] | No effect | No effect | No effect |  |  |  |  |
| C[C@H](O)[C@H]1CC[C@H]2[C@@H]3CC[C@@H]4C[C@H](O[C@@H]5O[C@H](C(=O)O)[C@@H](O)[C@H](O)[C@H]5O)CC[C@]4(C)[C@H]3CC[C@]12C [Pregnanediol glucuronide] | No effect | No effect | No effect |  |  |  |  |
| CC(=O)[C@H]1[C@H](C#N)C[C@H]2[C@@H]3CC=C4C[C@@H](O)CC[C@]4(C)[C@H]3CC[C@@]21C [Pregnenolone-16a-carbonitrile] | No effect | No effect | No effect |  |  |  |  |
| CC(=O)[C@H]1CC[C@H]2[C@@H]3CCC4=CC(=O)CC[C@]4(C)[C@H]3CC[C@]12C [Progesterone] | No effect | No effect | No effect |  |  |  |  |
| COC(=O)[C@H]1[C@H]2C[C@@H]3c4[nH]c5cc(OC)ccc5c4CCN3C[C@H]2C[C@@H](OC(=O)c2cc(OC)c(OC)c(OC)c2)[C@@H]1OC [Reserpine] | No effect | No effect | No effect |  |  |  |  |
